Laboratory results: patent US20220146526A1, “METHOD FOR EVALUATING SAMPLE, ANALYSIS METHOD, METHOD FOR DETECTING DEGRADED SAMPLE, MARKER FOR DETECTING DEGRADED BLOOD PLASMA SAMPLE, AND MARKER FOR DETECTING DEGRADED SERUM SAMPLE” (SHIMADZU CORPORATION, priority 2019, published 2022)

What was measured:
Type in all cases: physicochemical, human
[1] = GC/MS of serum sample: number of times of freezing and thawing (Table I); parameters: key to Rate of increase or decrease / Rate of increase or decrease (first value, increase): detection intensity relative to 2 freeze-thaw cycles = 1; conditions: for Rate of increase or decrease: 10 times of freezing and thawing, detection intensity relative to 1 at 2 times; for Number of times when compound is affected / Increase or decrease: serum sample, GC/MS; for Number of times when compound is affected: detection intensity changed by 30% or more vs 2 times of freezing and thawing; for Increase or decrease: detection intensity vs 2 times of freezing and thawing
Procedure: (§1) After standing, the blood sample was subjected to centrifugation under a condition of room temperature, 3500 rpm, and 5 minutes. […] After centrifugation, the blood-collecting vessel was left to stand at room temperature, and the serum was isolated during this time. Here, in order to investigate how the detection intensity of molecules contained in the sample was affected in cases where the time during which the blood-collecting vessel was left at room temperature was set to 1 hour and 6 hours as compared to that in a case where the time was set to 30 minutes, preparations were performed under the respective conditions of 30 minutes, 1 hour, and 6 hours. The obtained serum sample was frozen and stored. Here, in order to investigate how the detection intensity of molecules contained in the sample was affected in cases where freezing and thawing was performed 4 times, 6 times, and 10 times after freezing as compared to that in a case where freezing and thawing was performed 2 times after freezing, freezing and thawing was performed under the respective conditions of 2, 4, 6, and 10 times.
(§2) Frozen blood plasma samples and serum samples were subjected to GC/MS or LC/MS. In GC/MS, the blood plasma samples and serum samples were subjected to methoxymation and trimethylsilylation and then introduced to GC-MS.
(§3) GC/MS was conducted using GCMS·TQ8040 (Shimadzu Corporation) that was a GC·MS equipped with AOC·20i (Shimadzu Corporation) as an autosampler.
(§4) Column: BPX5 (inner diameter of 0.25 mm, length of 30 m, and film thickness of 0.25 μm) (SGE)
(§5) Column temperature: maintained at 60° C. for 2 minutes, then raised at 15° C./min, and maintained at 330° C. for 3 minutes.
(§6) Inlet temperature: 250° C.
(§7) Carrier gas control mode: constant linear velocity of 39.0 cm/sec
(§8) Sample introduction method: split (split ratio of 30:1) Injection volume: 1 μL
(§9) Ionization method: electron ionization
(§10) Ionization current: 60 μA
(§11) Interface temperature: 280° C.
(§12) Ion source temperature: 200° C.
(§13) Mode: multiple reaction monitoring (MRM)
The rate of increase or decrease in Table I is the value of detection intensity relative to 1 that is the detection intensity in a case where the number of times of freezing and thawing is set to 2 times.

[2] = GC/MS of serum sample: time from centrifugation to isolation (Table H); parameters: key to Rate of increase or decrease / Rate of increase or decrease (first value, increase): detection intensity relative to 1 at 30 min centrifugation-to-isolation; conditions: for Rate of increase or decrease: detection intensity relative to 1 at 30 minutes; for Increase or decrease: detection intensity
Procedure: as §1, §2, §3, §4, §5, §6, §7, §8, §9, §10, §11, §12, §13
The rate of increase or decrease in Table H is the value of detection intensity relative to 1 that is the detection intensity in a case where the time from centrifugation to isolation is set to 30 minutes.

[3] = GC/MS of serum sample: time from blood collection to centrifugation (Table G); conditions: blood collection to centrifugation; for Rate of increase or decrease: detection intensity relative to 1 at 15 minutes; for Increase or decrease: detection intensity
Procedure: as §1, §2, §3, §4, §5, §6, §7, §8, §9, §10, §11, §12, §13
The rate of increase or decrease in Table G is the value of detection intensity relative to 1 that is the detection intensity in a case where the time from blood collection to centrifugation is set to 15 minutes.

[4] = LC/MS of serum sample: number of times of freezing and thawing (Table M); parameters: key to Rate of increase or decrease: detection intensity relative to 1 at 2 freeze-thaw cycles; conditions: for Rate of increase or decrease: detection intensity relative to 1 at 2 times; for Number of times when compound is affected / Increase or decrease: serum sample, LC/MS; for Number of times when compound is affected: detection intensity changed by 30% or more vs 2 times of freezing and thawing; for Increase or decrease: detection intensity vs 2 times of freezing and thawing
Procedure: as §1, §2
Analysis column: Discovery HS F5-3 (inner diameter of 2.1 mm, length of 150 mm, film thickness of 3 μm) (Sigma-Aldrich)
Column temperature: 40° C.
(A) 0.1% formic acid (dissolved in water)
(B) 0.1% formic acid (dissolved in acetonitrile)
Flow velocity: 0.25 mL/min
Ionization method: electrospray
Temperature: • Desolvation Line (DL) temperature: 250° C. • Heat block temperature: 400° C. • Interface temperature: 300° C.
Gas flow rate: • Nebulizer gas flow rate: 3.0 L/min • Drying gas flow rate: 10.0 L/min • Heating gas flow rate: 10.0 L/min
as §13
The rate of increase or decrease in Table M is the value of detection intensity relative to 1 that is the detection intensity in a case where the number of times of freezing and thawing is set to 2 times.

[5] = 6 times of freezing and thawing

For `CC(=O)N[C@@H](CCC(N)=O)C(=O)O` [N-acetylglutamine], which “Rate of increase or decrease” value [1] is on record?
The value was 2.17.

What about the “Number of times when compound is affected” value (from here on “Number of times”) [1] of the same compound?
Its value is 10 times.

What about the Increase or decrease [1] of the same compound?
Its Increase or decrease is “Increase”.

And the “Rate of increase or decrease” value ([2]; after 6 hours)?
Its value is 1.58.

And the Increase or decrease ([2]; after 6 hours vs 30 minutes)?
Its Increase or decrease is “Increase”.

For `O=C(O)CCCC(=O)O` [Glutaric acid], which “Rate of increase or decrease” value ([3]; after 8 hours) is on record?
The value was 1.39.

And the Increase or decrease ([3]; after 8 hours vs 15 minutes)?
Its Increase or decrease is “Increase”.

Which “Rate of increase or decrease” value ([3]; after 4 hours) does the source give for `CC(=O)NCC(=O)O` [Acetylglycine] here?
The value was 0.68.

What about the Increase or decrease ([3]; after 4 hours vs 15 minutes) of the same compound?
Its Increase or decrease is “Decrease”.

Which “Number of times” value [1] does the source give for `CNCC(=O)O` [Sarcosine, sarcosine] here?
Its value is 10 times.

And the Increase or decrease [1]?
The Increase or decrease was “Increase”.

With `O=C(O)[C@H](O)[C@@H](O)[C@H](O)[C@H](O)CO` [Gluconic acid] as the compound, how does the Increase or decrease ([3]; after 12 hours vs 15 minutes) read?
Its Increase or decrease is “Increase”.

Which results are given for `CC(=NO)C(=O)O` [Pyruvic oxime]?
Rate of increase or decrease [1]: 1.69; Number of times when compound is affected [1]: 10 times; Increase or decrease [1]: Increase; Rate of increase or decrease ([2]; after 6 hours): 1.34; Increase or decrease ([2]; after 6 hours vs 30 minutes): Increase

With `N[C@@H](Cc1ccc(O)cc1)C(=O)O` [Tyrosine, tyrosine] as the compound, how does the “Rate of increase or decrease” value [4, 5] read?
The value was 0.60.

What about the “Number of times” value [4] of the same compound?
The value was 6 times.

And the Increase or decrease [4]?
The Increase or decrease was “Decrease”.

For `CC(C)(O)CC(=O)O` [3-Hydroxyisovaleric acid], which “Rate of increase or decrease” value ([3]; after 12 hours) is on record?
The value was 1.35.

And the Increase or decrease ([3]; after 12 hours vs 15 minutes)?
Its Increase or decrease is “Increase”.

Which “Rate of increase or decrease” value ([2]; after 1 hour) does the source give for `O=C(O)c1ccc(CO)o1` [5-Hydroxymethyl-2-furancarboxylic acid] here?
The value was 1.71.

And the Increase or decrease ([2]; after 1 hour vs 30 minutes)?
Its Increase or decrease is “Increase”.

With `NCCC(=O)O` [3-Aminopropionic acid (β-alanine), 3-Aminopropionic acid] as the compound, how does the “Rate of increase or decrease” value ([3]; after 8 hours) read?
Its value is 1.46.

And the Increase or decrease ([3]; after 8 hours vs 15 minutes)?
Its Increase or decrease is “Increase”.

Which “Rate of increase or decrease” value [4, 5] does the source give for `CSCC[C@H](N)C(=O)O` [Methionine, methionine] here?
The value was 0.69.

What about the “Number of times” value [4] of the same compound?
The value was 6 times.

What about the Increase or decrease [4] of the same compound?
Its Increase or decrease is “Decrease”.

For `O=C(O)CCC(O)C(=O)O` (stereo not drawn) [2-Hydroxyglutaric acid], which “Rate of increase or decrease” value ([2]; after 1 hour) is on record?
Its value is 1.31.

What about the Increase or decrease ([2]; after 1 hour vs 30 minutes) of the same compound?
The Increase or decrease was “Increase”.

What about the “Rate of increase or decrease” value ([3]; after 8 hours) of the same compound?
Its value is 2.00.

What about the Increase or decrease ([3]; after 8 hours vs 15 minutes) of the same compound?
Its Increase or decrease is “Increase”.

With `CC(C)C(=O)C(=O)O` [2-Ketoisovaleric acid] as the compound, how does the “Rate of increase or decrease” value ([3]; after 8 hours) read?
Its value is 0.67.

And the Increase or decrease ([3]; after 8 hours vs 15 minutes)?
Its Increase or decrease is “Decrease”.

Which “Rate of increase or decrease” value [1] does the source give for `NO` [Hydroxylamine] here?
The value was 2.31.

What about the “Number of times” value [1] of the same compound?
Its value is 10 times.

And the Increase or decrease [1]?
Its Increase or decrease is “Increase”.

What about the “Rate of increase or decrease” value ([2]; after 6 hours) of the same compound?
The value was 1.87.

And the Increase or decrease ([2]; after 6 hours vs 30 minutes)?
The Increase or decrease was “Increase”.

Which “Rate of increase or decrease” value ([4]; 10 times of freezing and thawing) does the source give for `CC(C)[C@H](N)C(=O)O` [Valine, valine] here?
Its value is 0.56.

What about the “Number of times” value [4] of the same compound?
Its value is 10 times.

And the Increase or decrease [4]?
The Increase or decrease was “Decrease”.

With `O=C(O)C(=O)Cc1ccccc1` [Phenylpyruvic acid] as the compound, how does the “Rate of increase or decrease” value [1] read?
The value was 2.06.

And the “Number of times” value [1]?
The value was 10 times.

And the Increase or decrease [1]?
Its Increase or decrease is “Increase”.

What about the “Rate of increase or decrease” value ([2]; after 6 hours) of the same compound?
The value was 1.45.

And the Increase or decrease ([2]; after 6 hours vs 30 minutes)?
The Increase or decrease was “Increase”.
